Data from patent US20180016593A1, “HERBICIDE-RESISTANT SUNFLOWER PLANTS, POLYNUCLEOTIDES ENCODING HERBICIDE-RESISTANT ACETOHYDROXYACID SYNTHASE LARGE SUBUNIT PROTEINS, AND METHODS OF USE” (priority 2005, published 2018).
Read-outs that look alike come from different tables or passages of the source.

Key:
[1] = test system: Clearfield sunflower variety A; assay: Greenhouse spray injury rating (Example 5); assay type: in vivo; conditions: in vivo
Excerpt: (§1) Methods: Sunflower lines S4897, Clearfield® sunflower varieties A, B, C and a conventional non-Clearfield variety were sprayed with three rates of imazamox (Raptor™), 100, 200 and 300 gm ai/ha plus 0.5% Sun It II and two rates of imazapyr (Arsenal™) 160 and 360 gm ai/ha plus 0.5% Sun It II when the plants were at the two to three leaf stage. Ratings were taken at 14 days after application (DAT) for injury. Injury was rated on a scale from 0 to 9 where […] to 9=dead plant. Twelve plants were sprayed per herbicide/rate treatment. Statistical analysis was conducted with STATGRAPHICS Plus 5.0 by using ANOVA and LSD procedures.
(§2) Results: After plants were sprayed, it was realized that a height difference between S4897 and other sunflower varieties would have impacted the actual herbicide dose that was delivered. The spray boom height had been calibrated against S4897 and since the other varieties were taller and closer to the boom they would have received a greater dose of herbicide. Rates were recalibrated for the other varieties to determine the approximate dose they would have received. Assessments were made as presented in Table 2 since it was not possible to make a direct rate comparison due to the effect of the height. For example injury scores were compare for S4897 treated imazamox rate 100 gm ai/ha to the other varieties treated at 75 gm ai/ha. The treatment dose of 300 gm ai/ha for line S4897 was equivalent to the treatment of 200 gm ai/ha for the other varieties, which approximately was 300 gm ai/ha.

[2] = test system: Clearfield sunflower variety B; assay: Greenhouse spray injury rating (Example 5); assay type: in vivo; conditions: in vivo
Excerpt: as §1, §2

[3] = test system: Clearfield sunflower variety C; assay: Greenhouse spray injury rating (Example 5); assay type: in vivo; conditions: in vivo
Excerpt: as §1, §2

[4] = test system: conventional non-Clearfield variety; assay: Greenhouse spray injury rating (Example 5); assay type: in vivo; conditions: in vivo
Excerpt: as §1, §2

[5] = test system: sunflower TH9 (Hybrid, A205V); assay type: in vivo, Helianthus annuus; conditions: 14 DAT
[6] = test system: sunflower GIM 5-7 (Manteiner Line, A205V); assay: Greenhouse whole-plant imazapir dose response (Example 8); assay type: in vivo, Helianthus annuus; conditions: GIM5-7, 14 DAT
Procedure: (§3) A greenhouse study was conducted to quantify and contrast the imazapir sensivity of the mutants A122T and A205V in different genetic backgrounds at the whole plant level in sunflower. Seeds of the different sunflower lines that were used in this study were obtained under field conditions.
(§4) Seeds were sown in Petri dishes and, after germination, plantlets were transplanted to pots of 10 cm of diameter in a potting media consisting of equal parts of vermiculite, soil and sand. Plants were grown in a greenhouse under natural light conditions supplemented with 400 W sodium halide lamps to provide a 16 hrs daylength. Day/night temperatures were 25 and 20° C., respectively. At the V2 stage 10 plants of each genotype were randomly assigned to each treatment consisting of […] imazapir doses (0, 40, 80, 160, 240, 320, 400 and 480 g ai/ha), and a zero-time biomass determination. Experiment was arranged as a randomized block design with a full factorial (sunflower line×treatment) arrangement of treatments and 10 replications.
(§5) On the day of herbicide application ten plants of each genotype were cut at the cotyledonal node and dried at 60° C. for 48 hrs zero-time for dried weight determination.
(§6) Height was determined as the distance between the cotyledonal node and the apex of each plant. For root biomass determination, each plant was taken from the pot and the potting media was washed out from the roots. Above ground biomass data from each line were converted to biomass accumulation after application by subtracting the appropriate average zero-time biomass from each sample. Dry biomass data were converted to percentages of the untreated control plants within each line to allow direct comparisons between groups. […]

[7] = test system: sunflower IB920 (Manteiner Line, A205V); assay: as above; assay type: in vivo, Helianthus annuus; conditions: 14 DAT
Procedure: as §3, §4, §5, §6

## CC(C)C1(C)N=C(c2ncccc2C(=O)O)NC1=O (stereo not shown) [imazapyr]
[1]
  Injury (scale 0 to 9): 5.0 c
[2]
  Injury (scale 0 to 9): 4.3 b
[3]
  Injury (scale 0 to 9): 4.9 c
[4]
  Injury (scale 0 to 9): 8.2 days
[5]; 0.5x (40 g ai/ha)
  Phytotoxicity Index: 0
  biomass accumulation (above ground dry weight): 91.7 % of untreated plots
  plant height: 100.0 % of untreated plots
  root dry weight: 81.5 % of untreated plots
[5]; 1x (80 g ai/ha)
  Phytotoxicity Index: 0
  biomass accumulation (above ground dry weight): 81.7 % of untreated plots
  plant height: 100.0 % of untreated plots
  root dry weight: 84.9 % of untreated plots
[5]; 2x (160 g ai/ha)
  Phytotoxicity Index: 1.6
  biomass accumulation (above ground dry weight): 54.7 % of untreated plots
  plant height: 78.9 % of untreated plots
  root dry weight: 58.8 % of untreated plots
[5]; 3x (240 g ai/ha)
  Phytotoxicity Index: 5.1
  biomass accumulation (above ground dry weight): 35.7 % of untreated plots
  plant height: 50.0 % of untreated plots
  root dry weight: 34.1 % of untreated plots
[5]; 4x (320 g ai/ha)
  Phytotoxicity Index: 8.4
  biomass accumulation (above ground dry weight): 25.3 % of untreated plots
  plant height: 38.1 % of untreated plots
  root dry weight: 27.3 % of untreated plots
[5]; 5x (400 g ai/ha)
  Phytotoxicity Index: 8.9
  biomass accumulation (above ground dry weight): 19.8 % of untreated plots
  plant height: 31.8 % of untreated plots
  root dry weight: 29.9 % of untreated plots
[5]; 6x (480 g ai/ha)
  Phytotoxicity Index: 8.9
  biomass accumulation (above ground dry weight): 19.5 % of untreated plots
  plant height: 34.7 % of untreated plots
  root dry weight: 22.1 % of untreated plots
[6]; 0.5x (40 g ai/ha)
  biomass accumulation (above ground dry weight): 92.9 % of untreated plots
  plant height: 79.1 % of untreated plots
  root dry weight: 79.2 % of untreated plots
[6]; 1x (80 g ai/ha)
  biomass accumulation (above ground dry weight): 75.1 % of untreated plots
  plant height: 76.7 % of untreated plots
  root dry weight: 56.3 % of untreated plots
[6]; 2x (160 g ai/ha)
  biomass accumulation (above ground dry weight): 55.1 % of untreated plots
  plant height: 57.7 % of untreated plots
  root dry weight: 40.6 % of untreated plots
[6]; 3x (240 g ai/ha)
  biomass accumulation (above ground dry weight): 45.6 % of untreated plots
  plant height: 55.3 % of untreated plots
  root dry weight: 40.2 % of untreated plots
[6]; 4x (320 g ai/ha)
  biomass accumulation (above ground dry weight): 31.8 % of untreated plots
  plant height: 27.3 % of untreated plots
  root dry weight: 34.0 % of untreated plots
[6]; 5x (400 g ai/ha)
  biomass accumulation (above ground dry weight): 34.2 % of untreated plots
  plant height: 37.2 % of untreated plots
  root dry weight: 48.5 % of untreated plots
[6]; 6x (480 g ai/ha)
  biomass accumulation (above ground dry weight): 36.8 % of untreated plots
  plant height: 30.0 % of untreated plots
  root dry weight: 43.1 % of untreated plots
[7]; 0.5x (40 g ai/ha)
  biomass accumulation (above ground dry weight): 93.9 % of untreated plots
  plant height: 96.2 % of untreated plots
  root dry weight: 94.0 % of untreated plots
[7]; 1x (80 g ai/ha)
  biomass accumulation (above ground dry weight): 87.9 % of untreated plots
  plant height: 80.0 % of untreated plots
  root dry weight: 89.6 % of untreated plots
[7]; 2x (160 g ai/ha)
  biomass accumulation (above ground dry weight): 58.8 % of untreated plots
  plant height: 61.5 % of untreated plots
  root dry weight: 50.7 % of untreated plots
[7]; 3x (240 g ai/ha)
  biomass accumulation (above ground dry weight): 48.4 % of untreated plots
  plant height: 40.9 % of untreated plots
  root dry weight: 37.3 % of untreated plots
[7]; 4x (320 g ai/ha)
  biomass accumulation (above ground dry weight): 35.5 % of untreated plots
  plant height: 27.9 % of untreated plots
  root dry weight: 32.8 % of untreated plots
[7]; 5x (400 g ai/ha)
  plant height: 30.0 % of untreated plots
  root dry weight: 25.4 % of untreated plots
[7]; 6x (480 g ai/ha)
  biomass accumulation (above ground dry weight): 29.4 % of untreated plots
  plant height: 27.1 % of untreated plots
  root dry weight: 19.4 % of untreated plots
